In the first assay the target is T1, acyl-CoA:cholesterol acyltransferase (ACAT) (Oryctolagus cuniculus, UniProt G1SFD9).
T1 construct: tissue preparation containing rabbit intestinal microsomes; from tissue; host or cells: rabbit intestinal microsomes
T1 sequence (G1SFD9 1-524): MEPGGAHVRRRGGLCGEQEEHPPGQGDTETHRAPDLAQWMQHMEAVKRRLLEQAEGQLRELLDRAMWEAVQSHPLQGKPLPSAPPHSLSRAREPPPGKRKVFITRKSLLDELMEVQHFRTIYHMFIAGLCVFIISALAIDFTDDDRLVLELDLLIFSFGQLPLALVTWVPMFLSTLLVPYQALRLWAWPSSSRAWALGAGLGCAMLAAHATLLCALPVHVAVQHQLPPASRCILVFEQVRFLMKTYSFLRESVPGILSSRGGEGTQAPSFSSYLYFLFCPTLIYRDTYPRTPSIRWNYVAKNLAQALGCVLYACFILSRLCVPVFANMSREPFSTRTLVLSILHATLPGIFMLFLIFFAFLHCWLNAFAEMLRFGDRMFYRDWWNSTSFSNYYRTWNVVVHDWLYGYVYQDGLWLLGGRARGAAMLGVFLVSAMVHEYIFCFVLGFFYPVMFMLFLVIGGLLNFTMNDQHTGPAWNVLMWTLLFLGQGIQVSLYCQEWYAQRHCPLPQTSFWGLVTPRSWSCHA
In words: In vitro inhibition of ACAT: formation of radiolabeled cholesterol oleate from radiolabeled oleic acid in rabbit intestinal microsomes. In kind it is biochemical.
Conditions: not given
An excerpt:
The test assesses the ability of a test compound to inhibit the acylation of cholesterol by oleic acid by measuring the amount of radiolabeled cholesterol oleate formed from radiolabeled oleic acid in a tissue preparation containing rabbit intestinal microsomes.
The compound `CCCCCCCCCOP(=O)(OCC)N(CC(=O)Nc1c(C(C)C)cccc1C(C)C)Cc1ccccc1` (racemic) [Example 32, (±)-[2-[[2,6 Bis(1-methylethyl)phenyl]amino]-2-oxoethyl](phenylmethyl)phosphoramidic Acid, Ethyl Nonyl Ester] had an IC50 of 14 nM.

Regarding `CCCCCCCCCOP(=O)(Oc1ccccc1)N(CC(=O)Nc1c(C(C)C)cccc1C(C)C)Cc1ccccc1` (racemic) [Example 34, (±)-[[[2,6-Bis(1-methylethyl)phenyl]amino]2-oxoethyl]-(phenylmethyl)phosphoramidic Acid, Nonyl Phenyl Ester], the IC50 came to 23 nM.

For `CCCCCCCCCCCCC(C)OP(=O)(Oc1ccccc1)N(CC(=O)Nc1c(C(C)C)cccc1C(C)C)Cc1ccccc1` (racemic) [Example 35, (±)-[2-[[2,6-Bis(1-methylethyl)phenyl]amino]-2-oxoethyl](phenylmethyl)phosphoramidic Acid, 1-Methyltridecyl Phenyl Ester], the IC50 amounted to 160 nM.

For `CCCCCCCCCCC1CN(Cc2ccccc2)P(=O)(OCC(=O)Nc2c(C(C)C)cccc2C(C)C)O1` (racemic) [Example 30, (±)-N-[2,6-Bis(1-methylethyl)phenyl]2-[[5-decyl-3-(phenylmethyl)-1,3,2-oxazaphosphonolidin-2-yl]-oxy]acetamide, P-oxide], the IC50 is 33 nM.

Staying with this assay, now noted: rabbit intestinal microsomes; read-out: IC50 (concentration of test compound required to inhibit cholesteryl oleate formation to 50% of control).
For the compound `CCCCCCC(C)OP(=O)(CC(=O)Nc1c(C(C)C)cccc1C(C)C)c1ccccc1` (racemic) [Example 11, (±)-2-[2,6-Bis(1-methylethyl)phenyl]amino]-2-oxoethyl]phenylphosphinic Acid, 1-Methylheptyl Ester], the IC50 was 35 nM.

With `CCCCCCCCCOP(=O)(c1ccccc1)N(CC(=O)Nc1c(C(C)C)cccc1C(C)C)Cc1ccccc1` (racemic) [Example 31, (±)-N-[2-[2,6-Bis(1-methylethyl)phenyl]amino]-2-oxoethyl]-P-phenyl-N-(phenylmethyl)phosphonamidic Acid, Nonyl Ester], the IC50 turned out to be 23 nM.

As for `CC(C)c1cccc(C(C)C)c1NC(=O)CP(=O)(OCc1ccccc1)OCc1ccccc1` [Example 36, [2-[[2,6-Bis(1-methylethyl)phenyl]amino]-2-oxoethyl]phosphonic Acid, Bis (Phenylmethyl)ester], the IC50 is 72 nM.

In the case of `CC(C)c1cccc(C(C)C)c1NC(=O)CP(=O)(c1ccccc1)c1ccccc1` [Example 2, N-2,6-Bis(1-methylethyl)phenyl-2-(diphenylphosphinyl)acetamide], the IC50 was determined as 2300 nM.

Turning to `CCCCCCCCCCCCOP(=O)(CC(=O)Nc1c(C(C)C)cccc1C(C)C)c1ccccc1` (racemic) [Example 12, (±)-[2-[[2,6-Bis(1-methylethyl)phenyl]amino]-2-oxoethyl]phenylphosphinicAcid, Dodecyl Ester], the IC50 was found to be 29 nM.

For the origin of these results see US5208224A, “Phosphorus containing compounds as antihypercholesterolemic and antiatherosclerotic agents” (Warner-Lambert Company, priority 1991, dated 1993).
